Test results: publication PMC7719179, “Small molecule inhibition of Dynamin-dependent endocytosis targets multiple niche signals and impairs leukemia stem cells” (Nature Communications, 2020)
Values joined by “and” are separate entries in the source; they are usually repeats but may differ in a detail not shown here. Equal values may be shown once.

Tests used:
[1] = tested on: DN3a T-cell progenitors of Lmo2^Tg mice; test: Thymocyte populations (DN3a, DN1-DN4) in the thymus of treated Lmo2^Tg mice; assay type: in vivo, mouse
Method: (§1) The synthesis of Dynole 34-2 and Dyngo 4a compounds was performed as previously described[32],[33] and was kindly provided by A. McCluskey. For in vitro assays, the specific Dynamin inhibitors Dynole 34-2, Dyngo 4a and Dynasore (#S8047, Selleckchem, Sapphire Bioscience Pty Ltd, Redfern NSW, Australia) were made as stock solutions in 100% dimethyl sulfoxide (DMSO), which were stored frozen. These compounds were diluted in 50% v/v DMSO/20 mM Tris-HCl pH 7.4 immediately prior to use. For in vivo administration, Dynole 34-2 was resuspended in pre-warmed HRC#5 (Pharmatek, San Diego CA, USA) 1 : 9 phosphate-buffered saline (PBS) 1× pH 7.4 at 37 °C, and sonicated 10 times for 30 s using a Bioruptor Plus (Biogenode) immediately prior to injection at 30 mg/kg, twice daily.
Flow cytometry analyses were performed as previously described[10],[86] on single-cell suspensions stained using BD Pharmingen antibodies (BD Australia, North Ryde NSW, Australia) against mouse CD4 (RM4-5), CD8 (53-6.7), CD25 (PC61.5), CD44 (IM7), CD45.1 (A20), CD45.2 (104), Thy1.2 (53-2.1; #561616), TCRβ (H57-597), CD117 (ACK45), CD135 (A2F10.1), CD150 (TC15-12F12.2; #562373), B220 (RA3-6B2; #563708), CD3 (145-2C11; #563004), CD19 (ID3; #557655), Gr-1 (RB6-8C5; #563299 and #565033), CD11b (M1/70; #563015 and #560455), Ter119 (Ter119; #565523 and #557909), Sca-1 (D7; #558160) and an eBioscience antibody (eBioscience, Invitrogen) against mouse NOTCH1 (22E5). DN3 populations and IL-7R were stained using BioLegend antibodies (Australian Biosearch, Balcatta WA, Australia) against mouse CD28 (E18) and CD127 (A7R34), respectively. Apoptosis was measured using an antibody against AnnexinV (#556420, BD Australia) and the […] Sytox Blue (BD Australia) following the manufacturer’s protocol.
All experiments were pre-approved by the AMREP Animal Ethics Committee. The current study was performed by using the previously described CD2-Lmo2 (Lmo2^Tg) mouse model. Mice cohorts were generated by cross-breeding with the Lck-Notch1-IC9 (N1-ICD^Tg)[45] generously given by T. Hoang[86], the Lck-STAT5b-CA (STAT5-CA^Tg)[88] kindly given by M.P. McCormack, the Mx1-Cre transgenic (Mx)[89] and the ROSA26-YFP Cre-reporter (YFP)[90] mouse strains. All mouse lines were backcrossed onto a C57BL/6J background for ten generations and maintained in pathogen-free conditions according to institutional animal care guidelines.

[2] = tested on: pStat5 and Hes1 in DN3a cells; test: pStat5 and Hes1 in DN3a cells from treated Lmo2^Tg mice (flow cytometry); assay type: in vivo, mouse
Method: as §1
Phosphoflow analysis was performed as previously described. Briefly, 2 × 10^6 cells stained for surface markers were subsequently resuspended into PBS 1× + 4% v/v paraformaldehyde and incubated for 10 min at 4 °C for fixation. Fixed cells were washed twice using PBS 1×, then resuspended in pre-chilled at −20 °C Perm Buffer III (BD Pharmingen) and incubated 30 min at 4 °C for permeabilization. Cells were washed twice using PBS 1× and incubated overnight at 4 °C in PBS 1× + 2% v/v fetal calf serum (FCS) with Cell Signalling purified antibodies (Genesearch Pty Ltd, Arundel QLD, Australia) against pSTAT5 (Tyr694; #9359), phospho-p38 MAPK (Thr180/Tyr182; #4511), phospho-p44/42 (Erk1/2; #9102), phospho-S6 (Ser235/236; #4856) and phospho-Akt (Ser473; #9271) or isotype control. For intracellular HES1 detection, cells stained for surface markers were subsequently fixed and permeabilized using the BD Cytofix/Cytoperm^TM Kit and incubated overnight at 4 °C in PBS 1× + 2% v/v FCS with a purified antibody against HES1 (D6PU; #11988, Cell Signalling) or isotype control. After staining with primary antibodies for phosphoflow or intracellular detection, cells were incubated in permeabilization buffer with donkey Alexa Fluor 488-conjugated anti-rabbit secondary antibody (A-21206, lot #1910751, Molecular Probes, Invitrogen) or goat Alexa Fluor 546-conjugated anti-rabbit secondary antibody (A-11035, lot #1904467, Molecular Probes, Invitrogen) for 1 h on ice, and washed twice in PBS 1×. Fluorescence-activated cell sorting (FACS) analysis was performed using LSRII and LSR Fortessa cytometers, following the gating strategies described in Supplementary Fig. 11. Cell sorting was performed with a FACSAria or BD Influx.

[3] = thymus of treated Lmo2^Tg mice, absolute numbers vs vehicle (response to reviewers)
[4] = thymus of treated Lmo2^Tg mice, individual mice

SMILES: CCCCCCCCNC(=O)C(C#N)=Cc1cn(CCCN(C)C)c2ccccc12 [Dynole 34-2, 2-Cyano-N-octyl-3-(1-(3-dimethylaminopropyl)-1H-indol-3-yl)-acrylamide]
- reduction in the numbers of DN3a thymocytes ([1]; Lmo2^Tg mice at end of treatment, vs vehicle, in words): tenfold reduction
- Absolute numbers DN3a cells ([1]; thymus of 6-week-old Lmo2^Tg mice after two rounds of treatment, individual animals (Fig 4a)): 1380000 and 2260000 and 730000 and 1690000 and 1100000
- Absolute numbers DN3a cells ([1]; thymus of 6-week-old Lmo2^Tg mice, 30 mg/kg i.p. twice daily, 5 days on 2 consecutive weeks, individual animals (Fig 3a), 30 mg/kg): 197000 and 290000 and 173000 and 171000 and 222000 and 359000
- decrease in DN3a thymocytes when combined with VXL, as compared to VXL alone ([1]; thymus of treated Lmo2^Tg mice (response to reviewers)): 75%
- decrease in DN1 cells [1, 3]: 56%
- decrease in DN2 cells [1, 3]: 45%
- decrease in DN3a cells [1, 3]: 64%
- increase in DN4 cells [1, 3]: 134%
- Proportion of DN cells (% DN), DN1 [1, 4]: 1.8 % DN and 1.3 % DN and 3.9 % DN and 6.4 % DN and 2.8 % DN
- Proportion of DN cells (% DN), DN2 [1, 4]: 1 % DN and 0.2 % DN and 0.4 % DN and 0.1 % DN and 0.5 % DN
- Proportion of DN cells (% DN), DN3 [1, 4]: 18.3 % DN and 14.1 % DN and 34.4 % DN and 43.5 % DN and 16.6 % DN
- Proportion of DN cells (% DN), DN4 [1, 4]: 79.5 % DN and 84.5 % DN and 61.1 % DN and 49.1 % DN and 80.5 % DN
- Hes1 (MFI) ([2]; DN3a cells from treated Lmo2^Tg mice): 22166 MFI and 17427 MFI and 19107 MFI and 15447 MFI
- Hes1 (MFI) ([2]; GFPhi DN3a cells): 2603 MFI and 2496 MFI and 2588 MFI and 2307 MFI and 2171 MFI
- pStat5 (MFI) ([2]; GFPhi DN3a cells): 1253 MFI and 1075 MFI and 1590 MFI and 1503 MFI and 1019 MFI
- Hes1 (MFI) ([2]; GFPlo DN3a cells): 2885 MFI and 2559 MFI and 2562 MFI and 2408 MFI and 2317 MFI
- pStat5 (MFI) ([2]; GFPlo DN3a cells): 1761 MFI and 1433 MFI and 1767 MFI and 1648 MFI and 1460 MFI
